From the NIST ThermoML archive (doi:10.1021/je7003947)
“And” between values parts separate entries of the source, which are not always exact repeats. Identical values can stand only once. Numbers after ± are expanded uncertainties. Each block holds one compound with its values, some of them ahead of it.

Conditions: Liquid, Closed cell (Static) method

- vapor or sublimation pressure (323.2 K): 23.8 ± 1.4 kPa
SMILES: CC(C)(C)O [2-methylpropan-2-ol]

- vapor or sublimation pressure (323.14 K): 29.4 ± 1.4 kPa
SMILES: CCO [ethanol]

- vapor or sublimation pressure (323.12 K): 495 ± 2.2 kPa
- vapor or sublimation pressure (323.13 K): 495.3 ± 2.2 kPa
- vapor or sublimation pressure (323.15 K): 495.6 ± 1.8 kPa and 495.7 ± 2.2 kPa
SMILES: CCCC [butane]

- vapor or sublimation pressure (323.13 K): 55.5 ± 1.4 kPa
SMILES: CO [methanol]

- vapor or sublimation pressure (323.17 K): 10.7 ± 1.4 kPa
SMILES: CCC(C)O (stereo not drawn) [butan-2-ol]

- vapor or sublimation pressure (323.19 K): 23.6 ± 0.2 kPa
SMILES: CC(C)O [propan-2-ol]
